Values quoted from earlier work as cited in US11992494B2, “Cyclopentathiophene carboxamide derivatives as platelet activating factor receptor antagonists” (Boehringer Ingelheim International GmbH, priority 2021, dated 2024).
Like-named read-outs stand apart in the source and are kept apart here.

Molecular target: PAF (Homo sapiens, UniProt P25105)
Settings: see EP0480455A1, cited from earlier work

Chain of PAF (P25105 whole entry): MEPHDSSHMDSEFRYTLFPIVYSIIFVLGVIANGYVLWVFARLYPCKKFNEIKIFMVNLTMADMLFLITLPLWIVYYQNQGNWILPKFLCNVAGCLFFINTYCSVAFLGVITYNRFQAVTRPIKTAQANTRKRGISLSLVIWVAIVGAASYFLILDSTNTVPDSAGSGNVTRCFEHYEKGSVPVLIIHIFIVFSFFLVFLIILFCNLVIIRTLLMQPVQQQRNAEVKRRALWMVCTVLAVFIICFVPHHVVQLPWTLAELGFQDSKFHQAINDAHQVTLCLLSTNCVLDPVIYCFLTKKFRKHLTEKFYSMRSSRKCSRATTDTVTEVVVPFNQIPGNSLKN

Cc1nnc2n1-c1sc(CCC(=O)N3CCOCC3)cc1C(c1ccccc1Cl)=NC2C (stereo not drawn) [example 1 of EP0368175A1 S-configured isomer]
PAF-antagonistic activity relative to racemate: S-configured isomer with several times
PAF-antagonistic activity relative to racemate (listed as Compound B S-configured enantiomer): several times stronger
